This is an account of results in patent US20100029761A1, “NOVEL COMPOUNDS, PHARMACEUTICAL COMPOSITIONS CONTAINING SAME, AND METHODS OF USE FOR SAME” (priority 2005, published 2010).

≈ marks a conversion by molar mass, not a printed value.

The test system of assay [1] is fatty acid synthesis pathway activity in MCF-7 human breast cancer cells. The assay is described as follows: [14C]acetate incorporation into total lipids. It is filed as cell-based. As to conditions: for IC50: Homo sapiens, MCF7, [14C]acetate incorporation into lipids; for 14C (IC50): [14C]acetate incorporation into lipids. How it is done: This assay measures the incorporation of [^14C]acetate into total lipids and is a measure of fatty acid synthesis pathway activity in vitro. It is utilized to measure inhibition of fatty acid synthesis in vitro.
MCF-7 human breast cancer cells cultured as above, are plated at 5×10^4 cells per well in 24-well plates. Following overnight incubation, the compounds to be tested, solubilized in DMSO, are added at 5, 10, and 20 μg/ml in triplicate, with lower concentrations tested if necessary. DMSO is added to triplicate wells for a vehicle control. C75 is run at 5 and 10 μg/ml in triplicate as positive controls. After 4 hours of incubation, 0.25 μCi of [^14C]acetate (10 μl volume) is added to each well.
After 2 hours of additional incubation, medium is aspirated from the wells and 800 μl of chloroform:methanol (2:1) and 700 μl of 4 mM MgCl2 is added to each well. Contents of each well are transferred to 1.5 Eppendorf tubes, and spun at full-speed for 2 minutes in a high-speed Eppendorf Microcentrifuge 5415D. After removal of the aqueous (upper) layer, an additional 700 μl of chloroform:methanol (2:1) and 500 μl of 4 mM MgCl2 are added to each tube and then centrifuged for 1 minutes as above. The aqueous layer is removed with a Pasteur pipette and discarded. An additional 400 μl of chloroform:methanol (2:1) and 200 μl of 4 mM MgCl2 are added to each tube, then centrifuged and aqueous layer is discarded. The lower (organic) phase is transferred into a scintillation vial and dried at 40° C. under N2 gas. Once dried, 3 ml of scintillant (APB #NBC5104) is added and vials are counted for ^14C. The Beckman Scintillation counter calculates the average cpm values for triplicates.
The IC50 for the compounds is defined as the concentration of drug leading to a 50% reduction in [^14C]acetate incorporation into lipids compared to controls. This is determined by plotting the average cpm for each inhibitor concentration tested, performing linear regression and computing the best-fit line, r^2 values, and 95% confidence intervals. The average cpm values are computed by the Beckman scintillation counter (Model LS6500) for each compound concentration. Computation of linear regression, best-fit line, r^2, and 95% confidence intervals are calculated using Prism Version 3.0 (Graph Pad Software).

Assay [2] relates to β-Oxidation of (1-14C) palmitic acid in cells. The experiment in a line: β-Oxidation assay, isolation of acid soluble products. It is filed as cell-based. Details: unit not given here. How it is done: A 24 well plate with 1 ml per well was prepared with 2.5×10^5 cells /well. The cells were incubated O/N. The next day, a solubilized palmitate solution was prepared. 50 μls of (1−^14C) Palmitic acid was added to a 2 ml centrifuge tube and dried under nitrogen gas. 2 mls of α-CD (α-Cyclodextran)—10 mg/ml in 10 mM Tris were added. This solution was incubated in a 37° C. water bath for 30 minutes. A hot mix was prepared by adding 25 μl of this solution to 2.5 μls of 200 μM Carnitine and 222.5 μl of serum free medium that is used for cells. The cells were then treated with the test compound in triplicate, and incubated. at 37° C. for 60 minutes. The medium was removed and 250 μl of the hot mix were added. The test compound was added again, and further incubated at 37° C. for 60 minutes. The reaction was stopped with 50 μl of 2.6 N HClO4. The contents of the plate were transferred to a 1.5 ml centrifuge tube, and 50 μl of 4N KOH were then added, and the tube incubated in a 60° C. water bath for 30 min. Sodium acetate (1 M, 75 μl) and sulfuric acid (3N, 50 μl) were added to the solution and vortexed. The tube was spun for 7 minutes at 1000 rpm at room temperature. A portion (225 μl) was removed, and the following were added (vortex after each addition, twice at the end): 938 μl of 1:1 Chloroform: Methanol; 468 μl of Chloroform; 281 μl distilled Water. The tubes were spun at 1000 rpm for 5 minutes. The upper phase was removed into a large glass scintillation vial and 5 ml of Budget solvent (scintillation liquid) was added. The tubes were well vortexed. Finally, ^14C was counted for one minute.

Regarding `CCCCCCCCC1OC(=O)C(OCC(=O)OCC)=C1C(=O)OCC` (centres unmarked) [Compound 3], the IC50 (in general, the point on the concentration scale where inhibition reaches its midpoint) in assay [1] was 30 µg/mL (≈ 81 µM). Also, the Beta oxidation in assay [2] (1.25 ug/ml) came out at 113; in assay [2] (2.5 ug/ml), 131; in assay [2] (5 ug/ml), 138; in assay [2] (10 ug/ml), 79.

With `CCCCC1OC(=O)C(O)=C1C(=O)OCC` (centres unmarked) [Compound 2], in assay [1], the “14C (IC50)” value is reported as “Neg”. Moreover, the Beta oxidation stood at 102 in assay [2] (0.19 ug/ml); 102 in assay [2] (0.39 ug/ml); 112 in assay [2] (1.56 ug/ml); 108 in assay [2] (12.5 ug/ml); 45 in assay [2] (50 ug/ml); 107 in assay [2] (.78 ug/ml).

In assay [1], `CCCCCCCCC1OC(=O)C(=O)C1C(=O)OCC` (centres unmarked) [Compound 1] registered an IC50 of 40.7 ± 7.1 µg/mL (≈ 143 µM).

Regarding `CCCCCCCCC1OC(=O)C(OCc2ccccc2)=C1C(=O)OCC` (centres unmarked) [Compound 5], the “14C (IC50)” value in assay [1] is recorded as “Neg (stim)”. Further, the Beta oxidation in assay [2] (1.25 ug/ml) is 108; in assay [2] (2.5 ug/ml) it was 101; in assay [2] (5 ug/ml), 115; in assay [2] (10 ug/ml), 74.

For the compound `CCCCCCCCC1OC(=O)C(OC(=O)OCC)=C1C(=O)OCC` (centres unmarked) [Compound 7], the “14C (IC50)” value in assay [1] is reported as “Neg”. Moreover, the Beta oxidation amounted to 99 in assay [2] (0.09 ug/ml); 107 in assay [2] (0.39 ug/ml); 113 in assay [2] (1.56 ug/ml); 146 in assay [2] (6.25 ug/ml); 131 in assay [2] (25 ug/ml); 54 in assay [2] (100 ug/ml).

Consider `CCCCCCCCC1OC(=O)C(OC)=C1C(=O)OCC` (centres unmarked) [Compound 4], for which the “14C (IC50)” value in assay [1] is on record as “Neg”. Moreover, the Beta oxidation in assay [2] (1.25 ug/ml) is 112; in assay [2] (2.5 ug/ml), 119; in assay [2] (5 ug/ml) it was 116; in assay [2] (10 ug/ml), 104.

Regarding `C=CCOC1=C(C(=O)OCC)C(CCCCCCCC)OC1=O` (centres unmarked) [Compound 6], the “14C (IC50)” value in assay [1] was “Neg”. For the same compound, the Beta oxidation in assay [2] (1.25 ug/ml) amounted to 118; in assay [2] (2.5 ug/ml) it was 125; in assay [2] (5 ug/ml), 112; in assay [2] (10 ug/ml), 101.
